Laboratory results: patent publication US20120083464A1, “NEUROPROTECTIVE PROPERTIES OF 5'-METHYLTHIOADENOSINE” (priority 2009, published 2012)
“Also recorded” adds a separate entry of the source.

Legend:
isolated optic nerve = assay: Simulated ischemia (OGD) in isolated optic nerves, LDH release; design: species or system Sprague Dawley rats; settings: 1 h ischemia with iodoacetate + 2 h reperfusion; MTA 100-300 μM
Method: Ischemic damage was induced by substituting […] and adding 1 mM of the glyocolytic blocker iodoacetate (1 mM) for 1 h followed by 2 h of reperfusion in […] aCSF. Optic nerves during ischemia and reperfusion were incubated with vehicle, for controls, and with MTA or glutamate receptor antagonists, and subsequently processed for LDH release assay. The results are the mean±SEM of at least three different experiments performed in duplicate.
Cell viability in oligodendrocyte cultures was assayed after 24 h of exposure to MTA (1 μM to 3 mM) calcein-AM assays respectively followed by fluorimetry measurements (Synergy-HT). Oligodendrocyte protection from excitotoxicity and optic nerve damage after ischemia (1 hour+2 hours reperfusion) were examined using lactate dehydrogenase release assays in the presence or absence of MTA (100-300 μM for 3 hours).

caspase 3 activity = assay: NMDA-mediated increase in caspase 3 activity in mixed neuronal-glial culture; format: cell-based, Sprague-Dawley rat; settings: NMDA 300 μM, MTA 250 μM or MK-801 10 μM
Method: Primary cultures of brain cortical neurons and glia were essentially prepared as described previously (Bruno et al., 2001, Eur. J. Neurosci., 13:1469-1478). The fronto-lateral cortical lobes were dissected out of Sprague-Dawley embryonic day 17 foetuses and were mechanically dissociated in Hanks' balanced solution. The cortical lobes were triturated by aspirating 7-10 times using a Pasteur pipette with a flame-narrowed tip. […]
Cortical neurons or mixed cortical neurons and glia were plated on poly-L-lysine-coated 6-well culture plates and after 7 DIV, cells were treated with vehicle or NMDA (300 μM) for different periods of time. […] Extracts were then centrifuged at 5,000×g for 10 min at 4° C., and protein content was determined by using the BCA protein assay according to the manufacturer instructions. Cell extracts (40 μg of protein) were incubated in reaction buffer (25 mM Hepes, 10% sucrose, 0.1% CHAPS, 10 mM DTT) containing 50 μM fluorescence substrate Z-DEVD-AFC at 37° C. for 1 h. Cleavage of the AFC fluorophore was determined in a spectrofluorometer at excitation wavelength of 400 nm and fluorescence was detected at an emission wavelength of 505 nm. Caspase 3 activity was expressed as units of fluorescence/mg of protein/h (Posadas et al., 2009, Pharm. Res., In press).

Row | SMILES | OGD/ischemia-induced damage in isolated optic nerve (LDH release) (isolated optic nerve) | protection against NMDA-induced caspase 3 activity (caspase 3 activity)
1 | N[C@H](CCCP(=O)(O)O)C(=O)O [APV, (2R)-amino-5-phosphonovaleric acid] | reduced; also recorded: attenuated | –
2 | N#Cc1cc2c(cc1[N+](=O)[O-])=NC(=O)C(=O)N=2 [CNQX, 6-cyano-7-nitro-quinoxaline-2,3-dione] | reduced; also recorded: attenuated | –
3 | C[C@]12N[C@H](Cc3ccccc31)c1ccccc12 [MK-801, reference compound] | – | neuroprotective action
